Experimental data reported in US12582657B2, “Combination therapy including a KRAS G12C inhibitor and one or more additional pharmaceutically active agents for the treatment of cancers” (Amgen Inc., priority 2018, dated 2026).

Tests used:
Experiment in all cases: Basal ERK1/2 phosphorylation assay (MSD)
Assay type in all cases: cell-based
[1] = test system: ERK1/2 phosphorylation in SW1573 cells; conditions: Homo sapiens; SW1573, lung, KRAS p.G12C homozygous; 2-hour treatment
Protocol: (§1) For cellular assays, 2.5E+04 cells were seeded per well in 96-well plates and incubated at 37° C., 5% CO2, o/n. The following day, 3-fold serially-diluted compound or DMSO was added to the cells, and the plates were incubated at 37° C., 5% CO2 for 2 hours. […] Signal intensity corresponded with phospho-ERK1/2 levels and was normalized DMSO control.

[2] = test system: ERK1/2 phosphorylation in NCI-H23 cells; conditions: Homo sapiens; NCI-H23, lung, KRAS p.G12C heterozygous; 2-hour treatment
Protocol: as §1

[3] = test system: ERK1/2 phosphorylation in NCI-H2030 cells; conditions: Homo sapiens; NCI-H2030, lung, KRAS p.G12C homozygous; 2-hour treatment
Protocol: as §1

[4] = test system: ERK1/2 phosphorylation in NCI-H1322 cells; conditions: Homo sapiens, 2 h, read-out: Basal p-ERK1/2 IC50
Protocol: as §1

[5] = test system: ERK1/2 phosphorylation in SW480 cells; conditions: Homo sapiens; SW480, colon, KRAS p.G12V homozygous; 2-hour treatment
Protocol: as §1

[6] = test system: ERK1/2 phosphorylation in A549 cells; conditions: Homo sapiens; A549, lung, KRAS p.G12S homozygous; 2-hour treatment
Protocol: as §1

[7] = test system: ERK1/2 phosphorylation in NCI-H1355 cells; conditions: Homo sapiens; NCI-H1355, lung, KRAS p.G13C heterozygous; 2-hour treatment
Protocol: as §1

`C=CC(=O)N1CCN(c2nc(=O)n(-c3c(C)ccnc3C(C)C)c3nc(-c4c(O)cccc4F)c(F)cc23)[C@@H](C)C1` (atropisomer, axis not shown) [AMG 510, 6-fluoro-7-(2-fluoro-6-hydroxyphenyl)-1-(4-methyl-2-(2-propanyl)-3-pyridinyl)-4-((2S)-2-methyl-4-(2-propenoyl)-1-piperazinyl)pyrido[2,3-d]pyrimidin-2(1H)-one] showed an IC50 [1] of 27 ± 1 nM, an IC50 [2] of 90 ± 17 nM and an IC50 [3] of 40 ± 20 nM. The IC50 [4] was > 10000 nM, the IC50 [5] was > 10000 nM and the IC50 [6] was > 10000 nM. The IC50 [7] was > 10000 nM.
